16 compounds from PubChem BioAssay (NCI) can be followed below.

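Each compound was tested at five concentrations against cells in 96-well plates for 48 hours. The concentration for full growth arrest is given as TGI.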 A value given as a limit tells only on which side of the number the result lay.

What all share (experiment): NCI tumour cell line growth inhibition, 48 h
In assay [1] the test system is PC-3 prostate.
The test system of assay [2] is HS 578T breast.
The test system of assay [3] is LOX IMVI melanoma.
Assay [4] concerns HOP-62 NSCLC.
Assay [5] relates to CCRF-CEM leukemia.
Assay [6] deals with A498 renal.
Assay [7] concerns KM12 colon.
Assay [8] has as its system UO-31 renal.
In assay [9] the test system is M14 melanoma.
The subject of assay [10] is OVCAR-5 ovarian.
Assay [11] relates to DU-145 prostate.
Assay [12] deals with SF-539 CNS.
Assay [13] concerns HOP-92 NSCLC.
Assay [14] relates to EKVX NSCLC.
Assay [15] has as its system T-47D breast.
Assay [16] deals with NCI/ADR-RES ovarian.
For assay [17], the system named is SK-MEL-5 melanoma.

On to `O=c1[nH]nc(-c2ccccc2)n1/N=C/c1cccc([N+](=O)[O-])c1`, for which the TGI in [1], in [2], in assay [3], in assay [4], in assay [5] and in assay [6] was greater than 100 µM each time. Further, the TGI in [7], in assay [8], in [9], in [10], in assay [11] and in [12] was greater than 100 µM throughout. Besides, the TGI in assay [13], in assay [14], in assay [15], in assay [16] and in assay [17] was greater than 100 µM in each case.

`COc1cc(/C=C2\C[C@H]3[C@@H]4CCC5=CC(=O)CC[C@]5(C)[C@H]4CC[C@]3(C)C2=O)cc(OC)c1OC`: the TGI was greater than 43.2 µM in assay [1]; greater than 100 µM in assay [2]; greater than 100 µM in assay [3]; greater than 66.9 µM in [4]; greater than 100 µM in assay [5]; greater than 100 µM in [6]. Besides, the TGI is greater than 37.2 µM in assay [7]; greater than 100 µM in assay [8]; greater than 42.5 µM in assay [9]; greater than 100 µM in [10]; greater than 100 µM in [11]; greater than 100 µM in [12]. For the same compound, the TGI is greater than 100 µM in [13]; greater than 100 µM in assay [14]; 9.09 µM in assay [15]; greater than 100 µM in [16]; 15.9 µM in assay [17].

For the compound `O=C1NC(Nc2ccccc2)=N/C1=C\c1c(Cl)cccc1Cl`, the TGI is 39.6 µM in assay [1]; 95 µM in assay [2]; greater than 100 µM in [3]; greater than 100 µM in assay [4]; 54.1 µM in assay [5]; greater than 100 µM in [6]. The TGI in assay [7] is greater than 100 µM; in assay [8] it was 18.4 µM; in [9], 83.5 µM; in assay [10], greater than 100 µM; in assay [11], 76.3 µM; in [12], 53.2 µM. Moreover, the TGI is 39.9 µM in assay [13]; 47.3 µM in assay [14]; greater than 100 µM in assay [15]; greater than 100 µM in assay [16]; 37.6 µM in [17].

For `Cc1ccc(O)c(C2=CC3=NNC(=O)C3C(c3cccc(Cl)c3)C2)c1` (configuration not stated), the TGI in [1] is greater than 100 µM; in [2], greater than 100 µM; in assay [3], 49.1 µM; in assay [4], greater than 100 µM; in assay [5] it was greater than 100 µM; in assay [6] it was greater than 100 µM. The TGI is 55.1 µM in assay [7]; greater than 100 µM in assay [8]; greater than 100 µM in assay [9]; greater than 100 µM in assay [10]; greater than 100 µM in assay [11]; greater than 100 µM in assay [12]. For the same compound, the TGI in assay [13] is 96.1 µM; in [14] it was greater than 100 µM; in [15], greater than 100 µM; in [16], greater than 100 µM; in assay [17], greater than 100 µM.

For the compound `Oc1ccc(/C=C/c2cccc(/C=C/c3ccc(O)c(O)c3)n2)cc1O`, the TGI in assay [1] was greater than 100 µM; in assay [2], greater than 100 µM; in assay [3], 21.7 µM; in assay [4] it was greater than 100 µM; in assay [5], greater than 100 µM; in [6], 26.2 µM. The TGI amounted to 36.2 µM in assay [7]; 11.2 µM in assay [8]; 16.9 µM in assay [9]; 23.6 µM in assay [10]; 20.6 µM in assay [11]; 9.39 µM in assay [12]. Also, the TGI turned out to be 25.3 µM in [13]; 25.5 µM in assay [14]; 7.06 µM in [15]; 26.7 µM in assay [16]; 15.8 µM in [17].

On to `COC(=O)c1c(CC(Cc2ccc3c(c2)CCCC3)C(=O)O)ccc2c1CCCC2` (configuration not stated), for which the TGI was greater than 100 µM in [1]; 79.4 µM in assay [2]; 31.4 µM in [3]; 51.7 µM in assay [4]; greater than 100 µM in [5]; 76.3 µM in assay [6]. Also, the TGI was 77.2 µM in [7]; 62.3 µM in [8]; greater than 100 µM in [9]; greater than 100 µM in [10]; greater than 100 µM in assay [11]; 44.9 µM in assay [12]. Also, the TGI was 50.9 µM in assay [13]; 68.6 µM in [14]; greater than 100 µM in assay [15]; 34.4 µM in assay [16]; greater than 100 µM in assay [17].

Turning to `Cc1nc2ccc(S(=O)(=O)NS(=O)(=O)c3ccc(-c4ccccc4)cc3)cc2c(=O)n1NS(=O)(=O)c1ccc(-c2ccccc2)cc1`, the TGI in assay [1], in [2], in [3], in assay [4], in assay [5] and in assay [6] was greater than 100 µM throughout. The TGI in assay [7], in assay [8], in assay [9], in [10], in assay [11] and in assay [12] was greater than 100 µM in each case. Moreover, the TGI in assay [13], in assay [14], in assay [15], in assay [16] and in assay [17] was greater than 100 µM in each case.

In the case of `Cc1ccc(-c2c(-c3ccccc3)[nH]c(C)c2C(=O)ONC(=O)c2ccccc2)cc1`, the TGI in [1] is 18.7 µM; in assay [2], 5.39 µM; in assay [3], 4.45 µM; in assay [4], 4.66 µM; in [5], greater than 27.1 µM; in assay [6] it was 25.5 µM. In addition, the TGI came to 26.4 µM in [7]; 3.86 µM in assay [8]; 18 µM in [9]; 32.3 µM in assay [10]; 3.82 µM in assay [11]; 8.06 µM in assay [12]. Besides, the TGI in assay [13] was 4.09 µM; in assay [14], greater than 50.3 µM; in assay [15], 19.9 µM; in [16] it was 18.3 µM; in [17], 18.3 µM.

Turning to `C[C@H]1C2Cc3cc(O)ccc3[C@@]1(C)CCN2CCc1ccc(N)cc1`, the TGI was 34.8 µM in assay [1]; greater than 100 µM in [2]; 28.2 µM in assay [3]; 33.4 µM in assay [4]; 69 µM in assay [5]; greater than 100 µM in assay [6]. For the same compound, the TGI was 34.3 µM in assay [7]; greater than 100 µM in [8]; 32.4 µM in [9]; greater than 100 µM in [10]; greater than 100 µM in [11]; 31.3 µM in [12]. Besides, the TGI in [13] was 73.7 µM; in assay [14] it was greater than 100 µM; in [15] it was greater than 100 µM; in assay [16], 63.2 µM; in assay [17], 27.5 µM.

As for `CC12CCCCC1=C(F)C(F)(F)S2` (configuration not stated), the TGI in [1] is greater than 87.2 µM; in [2] it was greater than 80.7 µM; in assay [3], 82.6 µM; in assay [4], greater than 100 µM; in assay [5] it was 22.7 µM; in assay [6], greater than 100 µM. The TGI was greater than 100 µM in assay [7]; 24.4 µM in [8]; greater than 83.6 µM in assay [9]; 97.7 µM in assay [10]; greater than 100 µM in [11]; greater than 100 µM in assay [12]. Besides, the TGI was greater than 67.9 µM in [13]; greater than 100 µM in assay [14]; 74.5 µM in assay [15]; greater than 100 µM in assay [16]; greater than 91.1 µM in [17].

With `Clc1ccc2c(NCCCCN3OC3c3ccccc3)ccnc2c1` (configuration not stated), the TGI is 26.7 µM in [1]; 35.9 µM in assay [2]; 5.67 µM in assay [3]; 10.9 µM in [4]; 8.09 µM in assay [5]; 12.3 µM in assay [6]. Besides, the TGI stood at 22.8 µM in assay [7]; 28.6 µM in assay [8]; 6.22 µM in [9]; 29.8 µM in assay [10]; 24.9 µM in assay [11]; 3.63 µM in assay [12]. Further, the TGI in [13] was determined as 25.8 µM; in assay [14], 38 µM; in assay [15], 16.9 µM; in assay [16] it was 40.2 µM; in assay [17], 11.4 µM.

With `COc1c2c(nc3ccccc13)-c1cc(C(CC(=O)OC(C)(C)C)C(=O)OC(C)C)c(CO)c(=O)n1C2` (configuration not stated), the TGI in assay [1], in [2], in [3], in assay [4], in assay [5] and in assay [6] was greater than 100 µM each time. Also, the TGI in assay [7] was greater than 100 µM; in assay [8] it was greater than 89.5 µM; in assay [9], greater than 100 µM; in assay [10], greater than 100 µM; in assay [11] it was greater than 100 µM; in assay [12], 98.4 µM. In addition, the TGI in assay [13], in assay [14], in assay [15], in assay [16] and in assay [17] was greater than 100 µM each time.

For the compound `O=C(Cn1cc(Br)c(=O)[nH]c1=O)c1ccc(-c2ccccc2)cc1`, the TGI in assay [1] was greater than 45.9 µM; in assay [2], greater than 100 µM; in assay [3], greater than 27.4 µM; in assay [4], 39.2 µM; in assay [5] it was greater than 20.2 µM; in [6] it was greater than 100 µM. Moreover, the TGI in assay [7] is greater than 26.3 µM; in [8] it was greater than 100 µM; in assay [9], greater than 24.1 µM; in assay [10], greater than 27.5 µM; in assay [11] it was greater than 30.7 µM; in assay [12] it was greater than 19.8 µM. Moreover, the TGI was 82.5 µM in assay [13]; greater than 100 µM in assay [14]; greater than 100 µM in [15]; greater than 100 µM in assay [16]; greater than 29.9 µM in assay [17].

Consider `O=C(c1cccs1)c1nccc2c1cnc1ccccc12`, for which the TGI in assay [1], in [2], in assay [3], in assay [4], in assay [5] and in assay [6] was greater than 100 µM in each case. In addition, the TGI in [7], in [8], in assay [9], in assay [10], in assay [11] and in [12] was greater than 100 µM throughout. The TGI in assay [13], in assay [14], in assay [15], in assay [16] and in assay [17] was greater than 100 µM throughout.

Consider `Cc1ccc(S(=O)(=O)CNC(=O)C(O)(O)C(F)(F)F)cc1`, for which the TGI in assay [1], in assay [2], in assay [3], in assay [4], in assay [5] and in [6] was greater than 100 µM in each case. Further, the TGI in [7], in assay [8], in [9], in [10], in assay [11] and in assay [12] was greater than 100 µM throughout. Also, the TGI in [13], in [14], in [15], in assay [16] and in assay [17] was greater than 100 µM throughout.

Take `CCOC(=O)C(=CNc1ccc(N(C2=NCC(C)S2)c2ccc(F)c(Cl)c2)cc1)C(=O)OCC` (configuration not stated): the TGI was 50.9 µM in [1]; 55.3 µM in assay [2]; 34.5 µM in [3]; 52 µM in [4]; 30.1 µM in [5]; 41.1 µM in assay [6]. Further, the TGI worked out at 33.6 µM in assay [7]; 38.6 µM in assay [8]; 35.4 µM in [9]; 39 µM in assay [10]; 43.9 µM in [11]; 46.4 µM in [12]. The TGI is 36.1 µM in assay [13]; 43.3 µM in assay [14]; 49.5 µM in assay [15]; 33.7 µM in assay [16]; 36.7 µM in assay [17].
